Source: patent US20240116985A1, “STAPLED PEPTIDES AND METHODS THEREOF” (priority 2020, published 2024)
Converted amounts (≈) assume the structure as drawn. Like-named read-outs stand apart in the source and are kept apart here.

Columns and labels:
[1] = molecular target: T1, full-length beta-Catenin (Uniprot ID P35222) (Homo sapiens, UniProt P35222); experiment: Fluorescence polarization IC50 (beta-catenin / 5FAM-TCF4 10-53 competition); assay type: binding
T1 construct: 10 nM full-length beta-Catenin (Uniprot ID P35222)
T1 sequence (P35222 1-781): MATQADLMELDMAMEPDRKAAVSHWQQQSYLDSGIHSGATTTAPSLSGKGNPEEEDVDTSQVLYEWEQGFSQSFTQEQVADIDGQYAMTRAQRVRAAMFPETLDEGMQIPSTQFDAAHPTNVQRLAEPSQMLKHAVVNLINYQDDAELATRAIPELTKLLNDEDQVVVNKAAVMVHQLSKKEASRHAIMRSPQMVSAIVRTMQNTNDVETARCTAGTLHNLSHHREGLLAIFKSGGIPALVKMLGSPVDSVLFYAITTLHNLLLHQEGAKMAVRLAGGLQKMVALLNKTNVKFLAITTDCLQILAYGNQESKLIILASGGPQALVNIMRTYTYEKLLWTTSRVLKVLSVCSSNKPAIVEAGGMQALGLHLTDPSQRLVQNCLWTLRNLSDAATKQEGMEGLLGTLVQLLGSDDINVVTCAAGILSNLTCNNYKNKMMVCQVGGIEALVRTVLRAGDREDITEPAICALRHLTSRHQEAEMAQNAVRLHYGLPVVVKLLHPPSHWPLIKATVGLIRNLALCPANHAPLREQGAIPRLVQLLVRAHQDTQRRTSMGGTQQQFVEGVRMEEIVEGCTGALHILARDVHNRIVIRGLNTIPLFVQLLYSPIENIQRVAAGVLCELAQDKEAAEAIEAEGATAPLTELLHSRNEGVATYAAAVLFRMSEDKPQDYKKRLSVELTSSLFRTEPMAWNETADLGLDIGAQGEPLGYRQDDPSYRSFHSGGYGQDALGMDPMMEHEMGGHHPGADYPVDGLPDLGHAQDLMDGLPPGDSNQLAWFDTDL

CHI Log D procedure = assay type: physicochemical; settings: for chromatographic logD: pH 7.4, CHI Log D; for CHI Log D: pH 7.4
Solubility in PBS = assay type: physicochemical
Outline: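 PBS sample ultracentrifuged; supernatant run on HPLC vs. 50 μM peptide in DMSO standard. Solubility = (PBS peak area / DMSO peak area) × 50 uM.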

[2] = Table E2-1, read-out: beta-Catenin FP IC50
[3] = fluorescence polarization, read-out: beta-Catenin FP IC50
[4] = fluorescence polarization, beta-catenin, read-out: FP EC50

Row | Compound | IC50 [1, 2] [nM] | chromatographic logD (CHI Log D procedure) | Solubility (Solubility in PBS; Solubility (uM)) [µM] | IC50 [1, 3] [nM] | IC50 ([1]; read-out: FP EC50) [nM] | CHI Log D (CHI Log D procedure) | Solubility (Solubility in PBS) [µM] | IC50 [1, 4] [nM] | IC50 ([1]; read-out: beta-Catenin FP IC50) [nM]
1 | CC(=O)N1CCC[C@]12CC=CCCCC1(CCCC=CCCCCCC[C@@](C)(C(=O)N[C@@H](Cc3ccccc3)C(=O)N[C@@H](Cc3ccc4ccccc4c3)C(=O)N[C@@H](CCC(N)=O)C(N)=O)NC(=O)[C@H](C(C)C)NC(=O)[C@H](Cc3ccccc3)NC(=O)[C@H](C)NC(=O)[C@H](C)NC(=O)[C@H](CCC(=O)O)NC(=O)[C@H](CC(=O)O)NC1=O)NC(=O)[C@H](C)NC(=O)[C@H](CC(=O)O)NC2=O (stereo partly drawn) [I-140, Ac-PL3-Asp-Ala-B5-Asp-Glu-Ala-Ala-Phe-Val-S8-Phe-2NapA-Gln-NH2] | 2270 | 2.19 | 48 (≈ 86.7 µg/mL) | – | – | – | – | – | –
2 | CC[C@H](C)[C@@H]1NC(=O)[C@H](CC(=O)O)NC(=O)[C@]2(CC=CCCCC3(CCCC=CCCCCCC[C@@](C)(C(=O)N[C@@H](Cc4ccsc4)C(=O)N[C@@H](Cc4csc5ccccc45)C(N)=O)NC(=O)[C@H](CC(N)=O)NC(=O)[C@H](Cc4ccccc4)NC(=O)[C@H](C)NC(=O)[C@H](C)NC(=O)[C@H](CCC(=O)O)NC(=O)[C@H](CC(=O)O)NC3=O)NC1=O)CCCN2C(C)=O (stereo partly drawn) [I-720, Ac-PL3-Asp-Ile-B5-Asp-Glu-Ala-Ala-Phe-Asn-S8-3Thi-BztA-NH2] | – | – | – | 75 | 75 | 2.665 | 33 (≈ 57.7 µg/mL) | – | –
3 | CC(=O)N1CCC[C@]12CC=CCCCC1(CCCC=CCCCCCC[C@@](C)(C(=O)N[C@@H](CCc3ccccc3)C(=O)N[C@@H](Cc3csc4ccccc34)C(=O)N[C@@H](CCC(N)=O)C(N)=O)NC(=O)[C@H](CC(N)=O)NC(=O)[C@H](Cc3ccccc3)NC(=O)[C@H](C)NC(=O)[C@H](C)NC(=O)[C@H](CCC(=O)O)NC(=O)[C@H](CC(=O)O)NC1=O)NC(=O)[C@H](C)NC(=O)[C@H](CC(=O)O)NC2=O (stereo partly drawn) [I-443, Ac-PL3-Asp-Ala-B5-Asp-Glu-Ala-Ala-Phe-Asn-S8-hPhe-BztA-Gln-NH2] | – | – | – | 2130 | 2130 | 2.128 | 50 (≈ 92.1 µg/mL) | – | –
4 | CC(=O)N1CCC[C@]12CC=CCCCC1(CCCC=CCCCCCC[C@@](C)(C(=O)N[C@@H](Cc3ccccc3)C(=O)N[C@@H](Cc3csc4ccccc34)C(N)=O)NC(=O)[C@H](CC(N)=O)NC(=O)[C@H](Cc3ccccc3)NC(=O)[C@H](C)NC(=O)[C@H](C)NC(=O)[C@H](CCC(=O)O)NC(=O)[C@H](CC(=O)O)NC1=O)NC(=O)[C@H](CC(C)(C)C)NC(=O)[C@H](CC(=O)O)NC2=O (stereo partly drawn) [I-713, Ac-PL3-Asp-Npg-B5-Asp-Glu-Ala-Ala-Phe-Asn-S8-Phe-BztA-NH2] | – | – | – | 70 | 70 | 2.851 | 48 (≈ 84.2 µg/mL) | – | –
5 | CC(=O)N1CCC[C@]12CC=CCCCC1(CCCC=CCCCCCC[C@@](C)(C(=O)N[C@@H](Cc3ccccc3)C(=O)N[C@@H](Cc3c[nH]c4ccccc34)C(=O)N[C@@H](CCC(N)=O)C(N)=O)NC(=O)[C@H](C(C)C)NC(=O)[C@H](Cc3ccco3)NC(=O)[C@H](C)NC(=O)[C@H](C)NC(=O)[C@H](CC(=O)O)NC(=O)[C@H](CC(=O)O)NC1=O)NC(=O)[C@H](C)NC(=O)[C@H](CC(=O)O)NC2=O (stereo partly drawn) [I-328, Ac-PL3-Asp-Ala-B5-Asp-Asp-Ala-Ala-2FurA-Val-S8-Phe-Trp-Gln-NH2] | 1910 | – | – | – | – | 1.983 | 44 (≈ 77.9 µg/mL) | 1910 | –
6 | CC(=O)N1CCC[C@]12CC=CCCCC1(CCCC=CCCCCCC[C@@](C)(C(=O)N[C@@H](Cc3ccccc3)C(=O)N[C@@H](Cc3c[nH]c4ccccc34)C(=O)N[C@@H](CCC(N)=O)C(N)=O)NC(=O)[C@H](C(C)C)NC(=O)[C@H](Cc3ccsc3)NC(=O)[C@H](C)NC(=O)[C@H](C)NC(=O)[C@H](CC(=O)O)NC(=O)[C@H](CC(=O)O)NC1=O)NC(=O)[C@H](C)NC(=O)[C@H](CC(=O)O)NC2=O (stereo partly drawn) [I-326, Ac-PL3-Asp-Ala-B5-Asp-Asp-Ala-Ala-3Thi-Val-S8-Phe-Trp-Gln-NH2] | 1750 | 1.97 | 34 (≈ 60.8 µg/mL) | – | – | – | – | – | –
7 | CC(=O)N1CCC[C@]12CC=CCCCC1(CCCC=CCCCCCC[C@@](C)(C(=O)N[C@@H](Cc3ccccc3)C(=O)N[C@@H](Cc3csc4ccccc34)C(=O)N[C@@H](Cc3c[nH]cn3)C(N)=O)NC(=O)[C@H](CC(N)=O)NC(=O)[C@H](Cc3ccccc3)NC(=O)[C@H](C)NC(=O)[C@H](C)NC(=O)[C@H](CCC(=O)O)NC(=O)[C@H](CC(=O)O)NC1=O)NC(=O)[C@H](C)NC(=O)[C@H](CC(=O)O)NC2=O (stereo partly drawn) [I-421, Ac-PL3-Asp-Ala-B5-Asp-Glu-Ala-Ala-Phe-Asn-S8-Phe-BztA-His-NH2] | – | – | – | 99 | 99 | 2.087 | 36 (≈ 66.1 µg/mL) | – | –
8 | CC(=O)N1CCC[C@]12CC=CCCCC1(CCCC=CCCCOC(=O)N3CC[C@@](C(=O)N[C@@H](Cc4ccsc4)C(=O)N[C@@H](Cc4csc5ccccc45)C(=O)N[C@H](C(N)=O)[C@@H](C)O)(C3)NC(=O)[C@H](CC(N)=O)NC(=O)[C@H](Cc3ccccc3)NC(=O)[C@H](C)NC(=O)[C@H](C)NC(=O)[C@H](CN(CC(=O)O)CC(F)(F)F)NC(=O)[C@H](CC(=O)O)NC1=O)NC(=O)[C@H](CC(C)(C)C)NC(=O)[C@H](CC(=O)O)NC2=O (stereo partly drawn) [I-942, Ac-PL3-Asp-Npg-B5-Asp-TfeGA-Ala-Ala-Phe-Asn-PyrS2-3Thi-BztA-Thr-NH2] | – | – | – | – | – | 1.984 | 46 (≈ 92.1 µg/mL) | 1280 | 1280
9 | CC(=O)N1CCC[C@]12CC=CCCCC1(CCCC=CCCCCCC[C@@](C)(C(=O)N[C@@H](Cc3ccccc3)C(=O)N[C@@H](Cc3csc4ccccc34)C(=O)N[C@@H](CCC(N)=O)C(N)=O)NC(=O)[C@H](CCC(N)=O)NC(=O)[C@H](Cc3cccc(C(F)(F)F)c3)NC(=O)[C@H](C)NC(=O)[C@H](C)NC(=O)[C@H](CC(=O)O)NC(=O)[C@H](CC(=O)O)NC1=O)NC(=O)[C@H](C)NC(=O)[C@H](CC(=O)O)NC2=O (stereo partly drawn) [I-379, Ac-PL3-Asp-Ala-B5-Asp-Asp-Ala-Ala-3F3MeF-Gln-S8-Phe-BztA-Gln-NH2] | – | – | – | – | – | 2.143 | 50 (≈ 94.8 µg/mL) | 1340 | –
10 | COc1ccccc1C[C@H](NC(=O)[C@]1(C)CCCCCCC=CCCCC2(CCCC=CC[C@]3(CCCN3C(C)=O)C(=O)N[C@@H](CC(=O)O)C(=O)N[C@@H](C)C(=O)N2)C(=O)N[C@@H](CC(=O)O)C(=O)N[C@@H](CCC(=O)O)C(=O)N[C@@H](C)C(=O)N[C@@H](C)C(=O)N[C@@H](Cc2ccccc2)C(=O)N[C@@H](CC(N)=O)C(=O)N1)C(=O)N[C@@H](Cc1csc2ccccc12)C(=O)N[C@@H](Cc1c[nH]cn1)C(N)=O (stereo partly drawn) [I-510, Ac-PL3-Asp-Ala-B5-Asp-Glu-Ala-Ala-Phe-Asn-S8-2OMeF-BztA-His-NH2] | – | – | – | 128 | 128 | 2.057 | 43 (≈ 80.2 µg/mL) | – | –
11 | CC[C@H](C)[C@H](NC(=O)[C@H](Cc1c[nH]cn1)NC(=O)[C@H](Cc1csc2ccccc12)NC(=O)[C@H](Cc1ccccc1)NC(=O)[C@]1(C)CCCCCCC=CCCCC2(CCCC=CC[C@]3(CCCN3C(C)=O)C(=O)N[C@@H](CC(=O)O)C(=O)N[C@@H](CC(C)C)C(=O)N2)C(=O)N[C@@H](CC(=O)O)C(=O)N[C@@H](CCC(=O)O)C(=O)N[C@@H](C)C(=O)N[C@@H](C)C(=O)N[C@@H](Cc2ccccc2)C(=O)N[C@@H](CC(N)=O)C(=O)N1)C(N)=O (stereo partly drawn) [I-741, Ac-PL3-Asp-Leu-B5-Asp-Glu-Ala-Ala-Phe-Asn-S8-Phe-BztA-His-Ile-NH2] | – | – | – | 226 | 226 | 2.915 | 10 (≈ 19.9 µg/mL) | – | –
12 | CC(=O)N1CCC[C@]12CC=CCCCC1(CCCC=CCCCCCC[C@@](C)(C(=O)N[C@@H](Cc3ccccc3)C(=O)N[C@@H](Cc3csc4ccccc34)C(=O)N[C@@H](CCC(N)=O)C(N)=O)NC(=O)[C@H]([C@@H](C)O)NC(=O)[C@H](Cc3ccccc3)NC(=O)[C@H](C)NC(=O)[C@H](C)NC(=O)[C@H](CCC(=O)O)NC(=O)[C@H](CC(=O)O)NC1=O)NC(=O)[C@H](C)NC(=O)[C@H](CC(=O)O)NC2=O (stereo partly drawn) [I-423, Ac-PL3-Asp-Ala-B5-Asp-Glu-Ala-Ala-Phe-Thr-S8-Phe-BztA-Gln-NH2] | – | 2.09 | 48 (≈ 87.1 µg/mL) | 105 | – | – | – | – | –
13 | CC[C@H](C)[C@@H]1NC(=O)[C@H](CC(=O)O)NC(=O)[C@]2(CC=CCCCC3(CCCC=CCCCCCC[C@@](C)(C(=O)N[C@@H](Cc4ccccc4)C(=O)N[C@@H](Cc4csc5ccccc45)C(=O)N[C@@H](Cc4c[nH]c5ccccc45)C(N)=O)NC(=O)[C@H](CCC(N)=O)NC(=O)[C@H](Cc4ccccc4)NC(=O)[C@H](C)NC(=O)[C@H](C)NC(=O)[C@H](CCC(=O)O)NC(=O)[C@H](CC(=O)O)NC3=O)NC1=O)CCCN2C(C)=O (stereo partly drawn) [I-643, Ac-PL3-Asp-Ile-B5-Asp-Glu-Ala-Ala-Phe-Gln-S8-Phe-BztA-Trp-NH2] | – | – | – | 958 | 958 | 2.833 | 28 (≈ 54.4 µg/mL) | – | –
